According to patent US20190330192A1, “SUBSTITUTED AZOLYLPYRROLONES AND AZOLYLHYDANTOINS AND SALTS THEREOF AND USE THEREOF AS HERBICIDAL ACTIVE SUBSTANCES” (Bayer CropScience Aktiengesellschaft, priority 2016, published 2019):

Target: T1, photosystem II (PS II) (Spinacia oleracea, UniProt P69560)
T1 construct: the chloroplasts were osmotically ruptured and the thylakoid membranes were then obtained by centrifugation; from tissue; host or cells: fresh spinach leaves; thylakoid membranes from isolated chloroplasts
Test: Measurement of the PS II activity in thylakoid membranes (DCPIP reduction)
Format: biochemical
Settings: test compound at 100 μM; spinach thylakoid membranes; DCPIP absorption at 595 nm over 10 min at 22° C. with exposure to light; read-out: Effect (inhibition of PS II activity)
Procedure: Cooled fresh spinach leaves were comminuted and homogenized in 50 mM phosphate buffer, pH 6.8. 10 mM KCl, 0.34 M sucrose (sucrose buffer) (blender, 1 g of plant material/ml). The homogenate was subsequently filtered through 4 layers of Miracloth and the chloroplasts were isolated by centrifugation, i.e. 10 min of centrifugation at 4400×g (4° C.). The sediment was suspended in 25 ml of sucrose buffer and re-centrifuged for 10 min at 4400×g (4° C.). The sediment was then suspended in 40 ml of 50 mM phosphate buffer, pH 6.8, 10 mM KCl, without sucrose. In this step, the chloroplasts were osmotically ruptured and the thylakoid membranes were then obtained by centrifugation (10 min, 4400×g, 4° C.). The membrane sediment was finally suspended in 20 ml of 50 mM phosphate buffer, pH 6.8, 10 mM KCl. […]
The electron transfer from PS II to an artificial electron acceptor, 2,6-dichlorophenolindophenol (DCPIP), was measured with exposure to light. The concentration of the blue oxidized form of DCPIP was determined spectrophotometrically at wavelength λ=595 nm. […]
Depending on the activity of the PS II preparation, the dilution was adjusted such that the measurement of the decrease in absorption (λ=595 nm) was linear for at least 10 min. […] On each microtiter plate, a known PS II inhibitor, for example metribuzin, was used as standard, which allowed the quality of the PS II test to be assessed. […]

Row | inhibition at 100 µM (stock) [%] | inhibition at 100 µM [%] | Compound
1 | 30 to 50 | – | CCC(=O)OC1C(C)=C(Cl)C(=O)N1c1nc(SC)n(C)n1 (centres unmarked) [1.74-185, 4-Chloro-3-methyl-1-[1-methyl-5-(methylsulfanyl)-1H-1,2,4-triazol-3-yl]-5-oxo-2,5-dihydro-1H-pyrrol-2-ylpropionate]
2 | – | 50 to 70 | CC1=C(Cl)C(=O)N(c2nnn(C)n2)C1O (centres unmarked) [1.82-2, 3-Chloro-5-hydroxy-4-methyl-1-(1-methyl-1H-1,2,4,5-tetrazol-3-yl)-1,5-dihydro-2H-pyrrol-2-one]
